For 87 compounds, melting point results are on record in a melting point compilation (Tetko et al.; mined from patent text by program, amines drawn as free bases though some values may be those of a salt).

One may read the melting point as the temperature of the solid-liquid transition. Compound `Cc1ccc(Sc2ccccc2CN(C)C)c([N+](=O)[O-])c1` showed a melting point of 109 to 111 °C.

Turning to `CC(C)n1cc(-c2ccc(NC(=O)c3ccccc3)cc2)c2c(N)ncnc21`, the melting point lay within 192 to 195 °C.

For the compound `COc1ccccc1C(=O)NS(=O)(=O)c1ccc(N)cc1`, the melting point lay within 180 to 182 °C.

`CCC1=CC=CC(CC)(c2ccncc2)C1c1c(OC(=O)C(C)(C)C)n2n(c1=O)CCOCC2` (configuration not stated) had a melting point of 146 to 147 °C.

`CC(O)(C(N)=O)c1ccc(OS(=O)(=O)C(F)(F)F)cc1` (configuration not stated): the melting point lay in the range of 105 to 107 °C.

For the compound `O=C1N(Cc2ncccc2C(F)(F)F)c2ccccc2C12COc1ccc3nonc3c12` (configuration not stated), the melting point lay within 212 to 215 °C.

`COC(=O)c1cc(-c2nnn(C)n2)c(C(=O)OC)s1` registered a melting point of 121 to 122 °C.

As for `CC(C)n1nc(-c2cc(C(=O)NCCN3CCOCC3)cnc2-c2ccccc2)ccc1=O`, the melting point lay in the range of 162 to 163 °C.

`CCS(=O)(=O)c1cnc(Cl)c(Cl)c1` returned a melting point of 141 to 142 °C.

Compound `CS(=O)(=O)c1ccc(-c2cc(C(=O)CCCO[N+](=O)[O-])nn2-c2ccc(C(F)(F)F)cc2)cc1` displayed a melting point of 152 to 154 °C.

Compound `O=C(Nc1ccc(-c2nnn[nH]2)cc1)Oc1ccc([N+](=O)[O-])cc1` showed a melting point of more than 260 °C.

Regarding `CC(C)(C)n1ncc(Cl)c(NCCN2CCN(c3cccc4c3OCCO4)CC2)c1=O`, the melting point is 177 to 178 °C.

Consider `COC(=O)CCC(C)C1CCC2C3CC=C4CC(OC(C)=O)CC(OC(C)=O)C4(C)C3CCC12C` (configuration not stated), for which the melting point is 108 to 113 °C.

Take `C=CCCC(=O)N1CCc2nnc(N(C)N)cc2C1`: the melting point was in the range of 128 to 130 °C.

In turn, `CN1CCCCc2cc([N+](=O)[O-])ccc21` gave a melting point of 52 to 54 °C.

With `COc1cc2c(cc1OC)C(CN1CCN(c3ccc(F)cc3)CC1)OCCC2` (configuration not stated), the melting point is 135 to 136 °C.

On to `CCc1cccc(C)c1CNc1cc(C(=O)OC)cn2c(C)nnc12`, for which the melting point turned out to be 214 °C.

Turning to `CC(C)(C)c1ccc(C(=O)NCc2ccc3c(c2)CN(C2CCC(=O)NC2=O)C3=O)cc1` (configuration not stated), the melting point was 238 to 240 °C.

As to `COC(=O)c1ccc(OCCCN2C(=O)c3ccccc3C2=O)c(OC)c1`, the melting point was in the range of 127 to 128 °C.

As to `N#CC1=C(n2cccc2)Oc2c(ccc3cc(C(=O)O)c(O)cc23)C1c1cccc([N+](=O)[O-])c1` (configuration not stated), the melting point is more than 230 °C.

`Cc1nc(C)c(Cl)c(NCc2nccc(N(C)CCN3CCc4ccccc4C3)c2Cl)n1` gave a melting point of 81 to 93 °C.

In the case of `NC(=O)c1cn(Cc2ccccc2F)cn1`, the melting point was 204 to 205 °C.

`Cc1cccc(C)c1N(C(C)CN1C(=O)c2ccccc2C1=O)S(C)(=O)=O` (configuration not stated) showed a melting point of 188 to 190 °C.

`CC(O)c1cccc([N+](=O)[O-])c1Cl` (configuration not stated) came in with a melting point of 62 to 64 °C.

For `COc1ccc(S(=O)(=O)N2Cc3ccccc3N(C(=O)c3cccc(C(F)(F)F)c3)CC2C(=O)O)cc1` (configuration not stated), the melting point was 105 to 110 °C.

The compound `COC(=O)c1ccc(C(OC(C)=O)OC(C)=O)cc1` came in with a melting point of 64 to 67 °C.

Compound `COc1cccc(NC(=O)NC(C(C)C)C2CCN(Cc3ccc(Cl)c(Cl)c3)CC2)c1` (racemic) came in with a melting point of 161 to 162 °C.

`Cc1oc(-c2cccc([N+](=O)[O-])c2)nc1CCl` showed a melting point of 111 to 113 °C.

`COC(=O)CC(=O)C[C@@H]1[C@@H](N2C(=O)c3ccccc3C2=O)C(=O)N1C(=O)C(=O)OC`: the melting point fell in the range of 130 to 132 °C.

`CCO/C(=C(/Oc1ccc(-c2ccc(Cl)cc2)cc1)n1ccnc1)C(C)(C)C` came in with a melting point of 112 to 113 °C.

For `Cn1c(NC(=O)c2ccccc2)nc2ccccc2c1=O`, the melting point was 185 to 187 °C.

`CCOCOC1CCC2(C)C(=CCC3C2CCC2(C)C3CC3OC4(CCC(C)CO4)C(C)C32)C1` (configuration not stated) showed a melting point of 125 to 127 °C.

`CCOC(=O)c1c2n(c3cc(Br)c(F)cc3c1=O)C(C)CS2` (configuration not stated) registered a melting point of 211 °C.

Turning to `COc1cc2ncnc(Nc3ccc(F)c(Cl)c3)c2cc1OCCC1OCCO1`, the melting point was in the range of 167 to 168 °C.

`CC(C)(C)OC(=O)Nc1c(F)cccc1OCc1ccccc1` displayed a melting point of 103 to 106 °C.

As for `COC(=O)Cc1ccc(-c2ccc(O)cc2)c(F)c1`, the melting point lay in the range of 115 to 118 °C.

As for `Cc1cc(-c2noc3cc(O)ccc23)ccc1O`, the melting point is 233 to 235 °C.

In turn, `COc1ccc(-n2c(-c3ccc(-c4ccc(-c5nc6c7ccccc7c7ccccc7c6n5-c5ccc(OC)cc5)cc4)cc3)nc3c4ccccc4c4ccccc4c32)cc1` registered a melting point of 403 °C.

`COc1cccc(C(=O)N(C)Cc2cccc(-c3ccc(CC4SC(=O)NC4=O)cc3)c2)c1` (configuration not stated) registered a melting point of 173 °C.

With `N#Cc1cc(C#N)cc(OC(C(=O)C2CC2)C(=O)C2CC2)c1`, the melting point lay in the range of 135 to 137 °C.

Compound `O=S(=O)(Nc1cccc(Br)c1)c1cc(S(=O)(=O)Nc2cccc(Br)c2)c2ccccc2c1` showed a melting point of 183 to 186 °C.

The compound `CCCCCCN(Cc1ccccn1)C(Nc1cc(C(C)(C)C)c(O)c(C(C)(C)C)c1)=C1C(=O)OC(C)(C)OC1=O` had a melting point of 169 to 170 °C.

`CCOC(=O)c1csc(Br)n1` had a melting point of 66 to 68 °C.

In the case of `CCOC(=O)C(NC(=O)NC)C(=O)OCC`, the melting point came to 139 °C.

In turn, `Cc1c(-c2ccncc2)[nH]c(-c2ccncc2)c1C=O` yielded a melting point of 278 to 280 °C.

In the case of `CCOC(=O)c1cnc(O)nc1-c1ccccc1`, the melting point is more than 260 °C.

For the compound `c1ccc2c(c1)CCc1c-2noc1N1CCCNCC1`, the melting point is 79 to 81 °C.

Take `Cc1ccnc2c([N+](=O)[O-])cc(F)cc12`: the melting point fell in the range of 139 to 141 °C.

Compound `CCCCCc1cc2c(nc(O)n2CC2CCNCC2)c(N)n1` registered a melting point of 246 to 249 °C.

As for `CCOC(=O)C(Cc1ccc(S)cc1)(NC(C)=O)C(=O)OCC`, the melting point lay in the range of 125 to 128 °C.

`Cn1cccc1-c1nsc2ccc(-n3c(=O)cc(C(F)(F)F)[nH]c3=O)cc12` came in with a melting point of 125 to 130 °C.

In the case of `c1cnc(NCCN2CCC(=C3c4sccc4CCn4ccnc43)CC2)nc1`, the melting point was found to be 173 °C.

The compound `O=C(Nc1cccnc1)NC(CS)Cc1ccccc1` (single isomer, unassigned; (+)) came in with a melting point of 149 °C.

As for `CCCC(=O)NCCCn1c(C)nc2c(N)nc3ccccc3c21`, the melting point lay within 222 to 223 °C.

Compound `Cc1ccc(CN(C(=O)C2CC2)c2nc(C)no2)cc1` gave a melting point of 49.5 to 50.5 °C.

Consider `CCc1nn2c(-c3ccc(OC)cc3Cl)cccc2c1N(CCF)CCOC`, for which the melting point was 45.8 to 52.8 °C.

Regarding `COC(=O)c1cc(C)c(OCCNC(=O)C2Cc3ccccc3N2S(=O)(=O)c2ccc(-c3cccc(C(F)(F)F)c3)cc2)c(C)c1` (configuration not stated), the melting point fell in the range of 81 to 83 °C.

Compound `Cc1cc(-n2ccnc2)c2cccc(OCc3c(Cl)ccc(S(=O)(=O)N4CCC[C@H]4C(=O)N4CCN(C(=O)OC(C)(C)C)CC4)c3Cl)c2n1` registered a melting point of 98 °C.

The compound `CN1CCC(O)(C#N)CC1` came in with a melting point of 130 to 133 °C.

In turn, `c1ccc2c(CCc3ccncc3)c[nH]c2c1` gave a melting point of 154 to 158 °C.

In the case of `Cc1cc(C)n(-c2ccc(N3CCOCC3)nn2)n1`, the melting point lay in the range of 119 to 121 °C.

Consider `COc1ccc2[nH]cc(C3=C(c4cc(OC)c(OC)c(OC)c4)C(=O)NC3=O)c2c1`, for which the melting point was 268 °C.

`O=C(NCCc1ccc(O)c(O)c1)OCc1ccccc1`: the melting point lay within 129 to 130 °C.

As for `O=C(CCCCN1CCC(Cc2ccccc2)CC1)c1ccc2c(c1)-c1ccc(C(=O)CCCCN3CCC(Cc4ccccc4)CC3)c3cccc-2c13`, the melting point was in the range of 126 to 128 °C.

Compound `O=C(Nc1cc2ccccc2oc1=O)c1ccccc1NCc1ccncc1` displayed a melting point of 195 to 197 °C.

In turn, `O=NSC1(CCO)C2CC3CC(C2)CC1C3` (configuration not stated) yielded a melting point of 77 to 79 °C.

In turn, `N[C@H](Cc1cccc(C(=O)c2ccccc2)c1)C(=O)O` came in with a melting point of 230 to 231 °C.

As to `O=CCCc1cn(-c2cccnc2)c2ccccc12`, the melting point fell in the range of 44 to 45 °C.

The compound `COC(=O)NCC1CN(c2ccc(C3C=CS(=O)(=O)CC3)cc2)C(=O)O1` (configuration not stated) had a melting point of 196 to 197 °C.

With `CCCCCCCCCCCCNC(=O)C(CC(=O)O)Sc1nc2ccccc2s1` (configuration not stated), the melting point was in the range of 117 to 121 °C.

The compound `COc1cc2c3c(c1)nc(-c1ccccc1)n3CCC2=NO` registered a melting point of 235 to 238 °C.

For `CNc1nn(C(=O)NC(C)CCc2ccccc2Cl)c(=O)n1C` (configuration not stated), the melting point was in the range of 133 to 135 °C.

As for `Cc1c(F)c(N2CCNCC2)c(F)c2c1c(=O)c(C(=O)O)cn2C1CC1`, the melting point fell in the range of 205 to 206 °C.

`CC1(O)c2ccccc2COc2ccc(C(=O)O)cc21` (configuration not stated): the melting point was 258 °C.

Regarding `O=C(c1ccc(F)cc1)c1ccc(C(=O)c2ccc(F)cc2)s1`, the melting point was determined as 186 °C.

Regarding `C=C1c2ccccc2C(=O)N1c1ccncc1`, the melting point lay within 173 to 174 °C.

In turn, `CNC1(c2ccccc2Cl)C(=O)Nc2ccc(F)cc21` (configuration not stated) gave a melting point of 188 to 189 °C.

For `c1ccc(-c2cnc(-c3ccccc3)s2)cc1`, the melting point was in the range of 102 to 105 °C.

For the compound `CC(SCc1cc2cc(Cl)ccc2n1S(=O)(=O)c1ccccc1)C(=O)O` (configuration not stated), the melting point came out at 138 °C.

As to `O=C1c2ccc([N+](=O)[O-])cc2C(=O)N1C1CCN(Cc2cccnc2)CC1`, the melting point fell in the range of 143 to 144 °C.

`COc1ccccc1CN[C@H]1CCCN(CCCCCCc2ccccc2)[C@H]1c1ccccc1` (relative stereo) came in with a melting point of 48 to 53 °C.

`COC1=CC(=O)OC1=C(COC(C)=O)C(C)C(C)=O` (configuration not stated) returned a melting point of 54 to 56 °C.

The compound `COC=C(C(=O)OC)c1ccccc1CON=C(C)c1nn(C)c2cc(OCC3CC3(Cl)Cl)c(F)cc12` (configuration not stated) yielded a melting point of 138 to 140 °C.

Regarding `Cc1cccc(C2=CCN(c3ccc(Cl)nn3)CC2)c1`, the melting point worked out at 122 °C.

For the compound `CCOC(=O)CC(=O)c1ccc(C#N)cc1`, the melting point was 64 °C.

Take `Nc1nc2ncnc(NCc3ccco3)c2[nH]1`: the melting point is 128 to 130 °C.

Regarding `CCCCOc1ncc(C(C)=O)cc1-c1nc2c(CC)n(CC3CC3)nc2c(=O)[nH]1`, the melting point was in the range of 184 to 185 °C.
